Assay results reported in patent US8883763B2 (Universite Joseph Fourier, priority 2010, dated 2014).

Assays:
[1] = test system: bovine brain tubulin; test: In vitro tubulin polymerization test (turbidimetry at 350 nm); type: biochemical; settings: molecules at 50 μM, calculated at t=3000 s, DMSO control = 100%
Experimental: Tubulin was purified from bovine brain using the polymerization-depolymerization process described by (Castoldi M and Popov A V. Protein Expr Purif. 2003, 32(1): pp 83-8).
The in vitro tubulin polymerization tests (at 50 μM) were carried out in the presence of GTP 1 mM in BRB80 buffer (80 mM K-PIPES pH 6.8, 1 mM MgCl2, 1 mM EGTA) at 37° C. The tests were carried out in 96-microwell plates (half-wells) (Costar plates, Corning #3695), in triplicate with a final volume of 70 μl. Tubulin assembly was carried out in the presence of compound 6 or its analogues (all used at a concentration of 50 μM) and was monitored by turbidimetry measurement at 350 nm using a spectrophotometer (Spectramax More, Molecular Devices).
Measurement of the effect of a molecule on polymerization was calculated at t=3000 s taking the value of the control at the same time as being equal to 100%.

[2] = test system: HeLa cells; test: Indirect immunofluorescence: effect on HeLa cells (mitotic arrest, microtubule depolymerization); type: cell-based, human; parameters: key to Effect on Hela at 25 μM / Effect on Hela at 100 μM / Effect on Hela at 50 and 100 μM / Effect on Hela at 50 μM: —: −: no activity on the cells at 25 μM (if there is an effect at high concentrations, this is specified in the table).; *: weak activity (MA and/or slight depolymerization of the MTs and/or slight inhibition of proliferation),; **: average activity (MA and/or moderate depolymerization of the MTs and/or moderate inhibition of proliferation),; ***: strong activity (MA and/or pronounced depolymerization of the MTs and/or pronounced inhibition of proliferation),; ****: very strong activity (MA and/or very pronounced depolymerization of the MTs and/or strong inhibition of proliferation); settings: 24 hours; for Effect on Hela at 25 μM: mitotic index and/or depolymerization of the MTs
Experimental: The cells were cultured on slides in 24-well plates and incubated for 24 hours with molecule 6 at different concentrations from 1 to 10 μM.
Corresponding quantities of DMSO were added to the culture medium in the control wells.
The cells were fixed in a solution of PBS with 4% paraformaldehyde (PFA) and 0.1% glutaraldehyde (GA), for 15 minutes and centrifuged at 300 g for the last 10 minutes of the fixing. The slides were rinsed in PBS and the free aldehyde groups were reduced by two successive 5-minute incubations in PBS containing 1 mg/ml of NaBH4.
After one washing with PBS then another with PBST (PBS with 0.5% triton-X-100), the cells are incubated for 30 minutes at ambient temperature with anti α-tubulin monoclonal antibody solution (DM1A clone, Sigma # T6199) diluted to 1:200 in PBST. After 3 10-minute washings with PBST, the cells are incubated for 30 minutes at ambient temperature in a solution of goat anti-mouse polyclonal antibodies coupled with Alexa 488 (1:1000, Molecular Probes # A-11029) and phalloidin coupled with Texas red to label the actin (1:2000, Molecular Probes # T7471), in PBST also containing Hoechst 33258 (1 μg/ml) for labelling the DNA. After 3 10-minute washings in PBST, the slides are mounted on plates in Fluorsave™ mounting medium (Calbiochem #345789) and are observed and analyzed using an Axiovert 200M inverted fluorescence microscope (Zeiss®). The images are produced with a Plan-Apochromat 63× oil objective (Zeiss®) by means of a Coolsnap HQ camera (Roper Scientifics®) and with Metamorph acquisition software (Universal Imaging™ Corporation).
In order to evaluate the effect of the analogues of compound 6 on PHFs and HeLa cells, the immunofluorescence technique described above was used and adapted to a 96-well dish format. The cells were seeded in glass-bottomed 96-well dishes and incubated for 24 hours in the presence of different concentrations of molecules from 100 μM to 50 nM. And in the same way as described above, the cells were fixed and immunolabelled. Analysis of the phenotypes as well as counting the mitotic cells were carried out with the same microscope but using a ×40 objective (Olympus). The molecules were compared with each other with respect to the mitotic arrest induced on PHFs and HeLa cells at 25 and 0.3 μM.
The mitotic index and/or the depolymerization of the MTs were evaluated at 25 μM.

[3] = target: T1, PP1α (PP1CA) (Oryctolagus cuniculus, UniProt P62139); test: Protein phosphatase test (PP1 activity, DiFMUP fluorescent substrate); type: biochemical; settings: for IC50: PP1CA at 80 mU, fluorescent substrate (50 μM), molecules from 50 μM to 50 nM, read-out: PP1 Inhibition IC50
T1 construct: purchased New England Biolabs P0754
Experimental: FIG. 13 presents the graph showing the inhibition of the PP1Cα activity by compound 6 in vitro. PP1Cα (New England Biolabs, 30 mU/well) was incubated in the presence of compound 6 at different concentrations and a fluorescent substrate, diFMUP.
Determination of the 1050 was carried out with PP1CA at 80 mU in the presence of a fluorescent substrate
(50 μM) and different concentrations of molecules from 50 μM to 50 nM.
For the activity tests, PP1α (New England Biolabs # P0754) was used at a final concentration of 30 mU or 80 mU for the screening of all the analogues. 6,8-difluoro-4-methylumbelliferyl phosphate (DiFMUP, Invitrogen # D6567) was used as fluorescent substrate at a concentration of […]. All the tests were carried out in a final volume of 100 μl, at 37° C. in 96-microwell plates (Greiner #655096).
Compound 6, combretastatin A4 (CA-4) as well as all the analogues were diluted in 50 μl of PP1 buffer (100 mM Tris-HCl, pH 7.5, 4 mM DTT, 0.2 mM EDTA, 0.5 mM MnCl2) from 50 μM to 50 nM. Corresponding quantities of DMSO were added to control wells. PP1α (30 or 80 mU in 30 μl of PP1 buffer) was added to each well. After incubating for 15 minutes at AT, the substrate was added (in 20 μl of PP1 buffer). After incubating for 20 minutes at 37° C., the fluorescence was measured in a plate fluorometer at 355-460 nm in order to assay the phosphatase activity. The test was carried out three times in duplicate for each condition.

[4] = test system: HMEC cells; test: Proliferation of HMEC cells (GI50); type: cell-based; settings: Homo sapiens, 120 h, 50 μM to 1 nM for 5 days
Experimental: The HMECs were seeded at 10% confluence and incubated with the molecules at different concentrations (from 50 μM to 1 nM) for 5 days. The GI50 (50% Growth Inhibition) defines the concentration inducing a 50% reduction in proliferation with respect to the control.

T1 sequence (P62139 whole entry): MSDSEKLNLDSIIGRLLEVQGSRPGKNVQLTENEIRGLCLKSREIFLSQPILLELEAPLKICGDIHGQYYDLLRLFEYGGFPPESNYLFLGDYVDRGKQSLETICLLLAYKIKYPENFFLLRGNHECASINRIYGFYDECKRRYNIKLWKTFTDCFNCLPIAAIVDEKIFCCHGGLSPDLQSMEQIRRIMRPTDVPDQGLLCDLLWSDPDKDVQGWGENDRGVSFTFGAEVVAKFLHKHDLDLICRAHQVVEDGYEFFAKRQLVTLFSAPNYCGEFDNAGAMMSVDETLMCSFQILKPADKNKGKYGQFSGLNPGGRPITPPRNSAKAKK

Row | SMILES | IC50 [3] | Tubulin polymerization inhibition [1] | Effect on Hela at 25 μM [2] | GI50 [4] | Effect on Hela at 50 and 100 μM [2] | Effect on Hela at 100 μM ([2]; 100 μM) | Effect on Hela at 50 μM ([2]; 50 μM) | inhibition of PP1Cα activity in vitro ([3]; PP1Cα 30 mU/well, diFMUP, negative control)
1 | COc1ccc(-c2[nH]c(=O)c3cc(OC)ccc3c2N)cc1 [Compound 1, 4-amino-7-methoxy-3-(4-methoxyphenyl)isoquinolin-1(2H)-one] | > 50 µM | — ((−) signifies that the molecule induces little or no tubulin assembly inhibition in vitro: 0+ or − −5% of the DMSO control.) | *** | 1 to 25 µM |  |  |  | 
2 | COc1ccc(-c2cc3ccc(OC)cc3c(=O)[nH]2)cc1 [Compound 4, 7-methoxy-3-(4-methoxyphenyl)isoquinolin-1(2H)-one] | > 50 µM | — ((−) signifies that the molecule induces little or no tubulin assembly inhibition in vitro: 0+ or − −5% of the DMSO control.) | — | > 50 µM | ** |  |  | 
3 | COc1ccc(-c2[nH]c(=O)c3cc(OC)ccc3c2-c2ccc(OC)cc2)cc1 [Compound 5] | > 50 µM | +++ ((+++) signifies that the molecule induces tubulin assembly inhibition in vitro of more than 50% with respect to the DMSO control.) | *** | 0.1 to 1 µM |  |  |  | 
4 | COc1ccc2c(NC=O)c(-c3ccccc3)[nH]c(=O)c2c1 [Compound 9, N-(7-Methoxy-1-oxo-3-phenyl-1,2-dihydroisoquinoline-4-yl)methanamide] | > 50 µM | — ((−) signifies that the molecule induces little or no tubulin assembly inhibition in vitro: 0+ or − −5% of the DMSO control.) | — | 25 to 50 µM | ** |  |  | 
5 | COc1ccc(-c2[nH]c(=O)c3cc(OC)ccc3c2Cl)cc1 [Compound 14, 4-Chloro-7-methoxy-3-(4-methoxyphenyl)isoquinoline-1(2H)-one] | > 50 µM | +++ ((+++) signifies that the molecule induces tubulin assembly inhibition in vitro of more than 50% with respect to the DMSO control.) | — | 25 to 50 µM |  |  |  | 
6 | COc1ccc(-c2[nH]c(=O)c3cc(OC)ccc3c2O)cc1 [Compound 41, 4-Hydroxy-7-methoxy-3-(4-methoxyphenyl)isoquinolin-1(2H)-one] | > 50 µM | — ((−) signifies that the molecule induces little or no tubulin assembly inhibition in vitro: 0+ or − −5% of the DMSO control.) | — | 1 to 25 µM |  |  |  | 
7 | COc1ccc(-c2[nH]c(=O)c3cc(OC)ccc3c2NCCOCCO)cc1 [Compound 50, 4-(2-(2-hydroxyethoxy)ethylamino)-7-methoxy-3-(4-methoxyphenyl)isoquinolin-1(2H)-one] | > 50 µM | +++ ((+++) signifies that the molecule induces tubulin assembly inhibition in vitro of more than 50% with respect to the DMSO control.) | — | 25 to 50 µM |  |  |  | 
8 | COc1ccc2c([N+](=O)[O-])c(-c3ccc(C#CC(C)(C)O)cc3)[nH]c(=O)c2c1 [Compound 59] | 25 to 50 µM | — ((−) signifies that the molecule induces little or no tubulin assembly inhibition in vitro: 0+ or − −5% of the DMSO control.) | — | > 50 µM |  |  |  | 
9 | COc1ccc(/C=C\c2cc(OC)c(OC)c(OC)c2)cc1O [combretastatin A-4, reference compound] |  |  |  |  |  |  |  | does not inhibit PP1 activity

More lines, main results first:

Row | IC50 [3] | SMILES | Tubulin polymerization inhibition [1] | Effect on Hela at 25 μM [2] | GI50 [4] | Effect on Hela at 50 and 100 μM [2] | Effect on Hela at 100 μM ([2]; 100 μM) | Effect on Hela at 50 μM ([2]; 50 μM) | inhibition of PP1Cα activity in vitro ([3]; PP1Cα 30 mU/well, diFMUP, negative control)
10 | > 50 µM | Nc1c(-c2ccccc2)[nH]c(=O)c2ccccc12 [Compound 2] | — ((−) signifies that the molecule induces little or no tubulin assembly inhibition in vitro: 0+ or − −5% of the DMSO control.) | — | 25 to 50 µM |  |  |  | 
11 | > 50 µM | COc1ccc(-c2[nH]c(=O)c3ccccc3c2[N+](=O)[O-])cc1 [Compound 7] | + ((+) signifies that the molecule induces tubulin assembly inhibition in vitro comprised between 6 and 25% of the DMSO control.) | *** | 1 to 25 µM |  |  |  | 
12 | > 50 µM | COc1ccc(-c2[nH]c(=O)c3ccccc3c2N)cc1 [Compound 8] | — ((−) signifies that the molecule induces little or no tubulin assembly inhibition in vitro: 0+ or − −5% of the DMSO control.) | — | > 50 µM |  |  |  | 
13 | > 50 µM | COc1ccc2c(N)c(-c3ccccc3)[nH]c(=O)c2c1 [Compound 10] | + ((+) signifies that the molecule induces tubulin assembly inhibition in vitro comprised between 6 and 25% of the DMSO control.) | — | > 50 µM | * |  |  | 
14 | 10 to 24 µM | O=c1[nH]c(-c2ccc(O)cc2)c(Cl)c2ccc(O)cc12 [Compound 56, 4-Chloro-7-hydroxy-3-(4-hydroxyphenyl)isoquinoline-1(2H)-one] | — ((−) signifies that the molecule induces little or no tubulin assembly inhibition in vitro: 0+ or − −5% of the DMSO control.) | — | > 50 µM |  | * |  | 
15 | > 50 µM | O=c1[nH]c(-c2ccc(O)cc2)cc2ccc(O)cc12 [Compound 57, 7-Hydroxy-3-(4-hydroxyphenyl)isoquinoline-1(2H)-one] | + ((+) signifies that the molecule induces tubulin assembly inhibition in vitro comprised between 6 and 25% of the DMSO control.) | *** | 1 to 25 µM |  |  |  | 
16 | 10 to 24 µM | O=c1c2ccccc2cc(-c2ccccc2)n1Cc1ccc(O)cc1 [Compound 74, 2-(p-hydroxybenzyl)-3penylisoquinolin-1(2H)-one] |  | — | 25 to 50 µM |  |  | * | 
